Patent US12595357B2, “Black knot melanin—a super-additive with UV absorbing and antioxidant properties” (The University of Akron, priority 2021, dated 2026)

Test: DPPH assay for antioxidant activity (radical scavenging)
Assay type: biochemical
Conditions: 0.1 mM DPPH solution, absorbance at 517 nm; masses greater than or equal to 40 μg
Description: 2,2-diphenyl-1-(2,4,6-trinitrophenyl) hydrazyl (DPPH) radical scavenging activity of BKF melanin was measured according to the procedure described in the literature. […] Afterwards, the UV-vis absorbance spectra were collected to monitor the decrease in the absorbance at 517 nm due to quenching of DPPH radical by the BKF melanin. Similar volumes of BKF melanin solution were added to pure ethanol (instead of 0.1 mM DPPH solution) to measure the absorbance of BKF melanin itself. Afterwards, the scavenging activity (or antioxidant activity) [I] was calculated using Equation 1, where Ac is the absorbance of DPPH solution without any BKF melanin, Ai is the absorbance of DPPH solution mixed with varying amounts of BKF melanin, and Aj is the absorbance of BKF melanin itself without DPPH solution. […]
The antioxidant activity of BKF melanin was investigated using the DPPH assay described above. The scavenging activity was determined by monitoring the decrease in absorbance of DPPH at 517 nm, since the DPPH is reduced through an electron transfer from the antioxidant material. […] As the ascorbic acid concentration increases from 0 to 60 μg, the absorbance at 517 nm decreases along with visual change in color from purple to yellow. The antioxidant activity (%) calculated using Equation 1 is plotted as a function of ascorbic acid mass in FIG. 3B. […]

For `O=C1O[C@H]([C@@H](O)CO)C(O)=C1O` [ascorbic acid], the “antioxidant activity (%), saturated value” was roughly 90%.
